Positions of bridges follow the written chain, without caps; N, C: chain ends. Non-standard residues stand in square brackets, D forms with d. Residues, ends and D or L forms follow the SMILES beside them. ξ: configuration not given here. *: point of attachment. Phe(4-COOH) = N[C@@H](Cc1ccc(C(=O)O)cc1)C(=O)O; Phe(4-CH2NH2) = NCc1ccc(C[C@H](N)C(=O)O)cc1; Bip = N[C@@H](Cc1ccc(-c2ccccc2)cc1)C(=O)O; dPro(4S-NH2) = N[C@@H]1CN[C@@H](C(=O)O)C1; Phe(3-Cl) = N[C@@H](Cc1cccc(Cl)c1)C(=O)O; Phe(3-Me) = Cc1cccc(C[C@H](N)C(=O)O)c1; NMeR = CN[C@@H](CCCNC(=N)N)C(=O)O; Ala(cPr) = N[C@@H](CC1CC1)C(=O)O; NMeF = CN[C@@H](Cc1ccccc1)C(=O)O; Cha = N[C@@H](CC1CCCCC1)C(=O)O; Carboxymethyl = O=C(O)C*; NMeA = CN[C@@H](C)C(=O)O; Orn = NCCC[C@H](N)C(=O)O; Dab = NCC[C@H](N)C(=O)O; Abu = CC[C@H](N)C(=O)O; Dap = NC[C@H](N)C(=O)O; ξV = CC(C)C(N)C(=O)O; Sar = CNCC(=O)O
Target: T1, human PD-1 (Jurkat-PD-1 cells) / PE-labeled human PD-L1-Ig (Homo sapiens, UniProt Q15116)
T1 construct: expressed in transfected cells; host or cells: Jurkat cell line over-expressing human PD-1
Test: Jurkat-PD-1 Cell Binding High-Content Screening Assay (CBA); Jurkat hPD1-PDL1 assay
Settings: Jurkat cell line over-expressing human PD-1; PE-labeled PD-L1-Ig 20 nM final; compound incubated 2 hours at 37° C.; read-out: Jurkat HPD1-PDL1 IC50
In short: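 Jurkat cells over-expressing human PD-1, seeded in DMEM with 10% fetal calf serum, were preincubated with compound for 2 hours at 37° C. PE-labeled human PD-L1-Ig was then added at 20 nM final, and cell-bound fluorescence was read by high-content imaging.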

T1 sequence (Q15116 25-288): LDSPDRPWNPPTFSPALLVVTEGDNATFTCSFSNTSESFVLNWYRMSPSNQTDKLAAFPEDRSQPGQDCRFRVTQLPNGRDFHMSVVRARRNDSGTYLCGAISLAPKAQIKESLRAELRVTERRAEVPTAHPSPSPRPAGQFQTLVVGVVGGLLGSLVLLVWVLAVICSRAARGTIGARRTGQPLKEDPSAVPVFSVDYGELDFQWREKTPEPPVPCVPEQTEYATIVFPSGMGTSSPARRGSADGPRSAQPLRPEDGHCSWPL

Compound	IC50
CC(C)C[C@@H]1NC(=O)[C@H](Cc2c[nH]c3ccccc23)NC(=O)[C@H](CC(=O)O)NC(=O)[C@H](Cc2ccc(CN)cc2)NC(=O)[C@H](Cc2ccccc2)NC(=O)CSC[C@@H](C(=O)N[C@@H](C)C(N)=O)NC(=O)[C@H](CO)NC(=O)[C@H](C(C)C)NC(=O)[C@H](CC(C)C)NC(=O)[C@H](CC(N)=O)NC(=O)CN(C)C(=O)[C@H](C)N(C)C(=O)[C@H](C(C)C)NC(=O)[C@H](Cc2ccc(-c3ccccc3)cc2)NC1=O [Example 1101] ({CH2CO}-F[Phe(4-CH2NH2)]DWL[Bip]V[NMeA][Sar]NLVSCA-NH2; thioether N-14)	300 nM
CC(C)C[C@@H]1NC(=O)[C@H](CCN)NC(=O)[C@H](Cc2ccccc2)N(C)C(=O)[C@H](C)N(C)C(=O)[C@H](CCCNC(=N)N)NC(=O)[C@H](Cc2ccc(-c3ccccc3)cc2)NC(=O)[C@H](C(C)C)NC(=O)[C@H](Cc2c[nH]c3ccccc23)NC(=O)[C@H](CC(=O)O)NC(=O)[C@H](Cc2ccc(O)cc2)NC(=O)[C@H](CCC(N)=O)NC(=O)CSC[C@@H](C(=O)NCC(N)=O)NC(=O)[C@H](CO)NC(=O)[C@H](C(C)C)NC1=O [Example 1309] ({CH2CO}-QYDWV[Bip]R[NMeA][NMeF][Dab]LVSCG-NH2; thioether N-14)	340 nM
CC(C)C[C@@H]1NC(=O)[C@H](Cc2c[nH]c3ccccc23)NC(=O)[C@H](CC(=O)O)NC(=O)[C@H](Cc2ccc(O)cc2)NC(=O)[C@H](Cc2ccccc2)NC(=O)CSC[C@@H](C(=O)N[C@@H](C)C(N)=O)NC(=O)[C@H](CO)NC(=O)[C@H](C(C)C)NC(=O)[C@H](CC(C)C)NC(=O)[C@H](CCN)NC(=O)[C@H]2CCCN2C(=O)[C@H](C)N(C)C(=O)[C@H](C(C)C)NC(=O)[C@H](Cc2ccc(-c3ccccc3)cc2)NC1=O [Example 1397] ({CH2CO}-FYDWL[Bip]V[NMeA][dP][Dab]LVSCA-NH2; thioether N-14)	40 nM
CC[C@@H]1NC(=O)[C@H](Cc2ccc(-c3ccccc3)cc2)NC(=O)[C@H](CC(C)C)NC(=O)[C@H](Cc2c[nH]c3ccccc23)NC(=O)[C@H](CC(=O)O)NC(=O)[C@H](Cc2ccc(O)cc2)NC(=O)[C@H](Cc2ccccc2)NC(=O)CSC[C@@H](C(=O)NCC(N)=O)NC(=O)[C@H](CO)NC(=O)[C@H](C(C)C)NC(=O)[C@H](CC(C)C)NC(=O)[C@H](CCCNC(=N)N)NC(=O)CN(C)C(=O)[C@H](CCCNC(=N)N)N(C)C1=O [Example 1234] ({CH2CO}-FYDWL[Bip][Abu][NMeR][Sar]RLVSCG-NH2; thioether N-14)	290 nM
CC(C)C[C@@H]1NC(=O)[C@H](CCCNC(=N)N)NC(=O)[C@H](Cc2ccccc2)N(C)C(=O)[C@H](C)N(C)C(=O)[C@H](CCCNC(=N)N)NC(=O)[C@H](Cc2ccc(-c3ccccc3)cc2)NC(=O)[C@H](C(C)C)NC(=O)[C@H](Cc2cccc(Cl)c2)NC(=O)[C@H](CC(=O)O)NC(=O)[C@H](Cc2ccc(O)cc2)NC(=O)[C@H](Cc2ccccc2)NC(=O)CSC[C@@H](C(=O)NCC(N)=O)NC(=O)[C@H](CO)NC(=O)[C@H](C(C)C)NC1=O [Example 1241] ({CH2CO}-FYD[Phe(3-Cl)]V[Bip]R[NMeA][NMeF]RLVSCG-NH2; thioether N-14)	270 nM
CC(C)C[C@@H]1NC(=O)[C@H](Cc2c[nH]c3ccccc23)NC(=O)[C@H](CC(=O)O)NC(=O)[C@H](Cc2ccc(O)cc2)NC(=O)[C@H](Cc2ccccc2)NC(=O)CSC[C@@H](C(=O)N[C@@H](C)C(N)=O)NC(=O)[C@H](CO)NC(=O)[C@H](C(C)C)NC(=O)[C@H](CC(C)C)NC(=O)[C@H](CC(N)=O)NC(=O)[C@H]2C[C@H](N)CN2C(=O)[C@H](C)N(C)C(=O)[C@H](C(C)C)NC(=O)[C@H](Cc2ccc(-c3ccccc3)cc2)NC1=O [Example 1091] ({CH2CO}-FYDWL[Bip]V[NMeA][dPro(4S-NH2)]NLVSCA-NH2; thioether N-14)	260 nM
CC(C)C[C@@H]1NC(=O)[C@H](Cc2c[nH]c3ccccc23)NC(=O)[C@H](CC(=O)O)NC(=O)[C@H](Cc2ccc(O)cc2)NC(=O)[C@H](CC(N)=O)NC(=O)CSC[C@@H](C(=O)NCC(N)=O)NC(=O)[C@H](CO)NC(=O)[C@H](C(C)C)NC(=O)[C@H](CC(C)C)NC(=O)[C@H](CC(N)=O)NC(=O)CN(C)C(=O)[C@H](C)N(C)C(=O)[C@H](C(C)C)NC(=O)[C@H](Cc2ccc(-c3ccccc3)cc2)NC1=O [Example 1140] ({CH2CO}-NYDWL[Bip]V[NMeA][Sar]NLVSCG-NH2; thioether N-14)	600 nM
CC(C)C[C@@H]1NC(=O)[C@H](Cc2c[nH]c3ccccc23)NC(=O)[C@H](CC(=O)O)NC(=O)[C@H](Cc2ccc(O)cc2)NC(=O)[C@H](Cc2ccccc2)NC(=O)CSC[C@@H](C(=O)N[C@@H](C)C(N)=O)NC(=O)[C@H](CO)NC(=O)[C@H](C(C)C)NC(=O)[C@H](CC(C)C)NC(=O)[C@H](CCN)NC(=O)[C@H]2CCCN2C(=O)[C@H](CN)NC(=O)[C@H](C(C)C)NC(=O)[C@H](Cc2ccc(-c3ccccc3)cc2)NC1=O [Example 1408] ({CH2CO}-FYDWL[Bip]V[Dap][dP][Dab]LVSCA-NH2; thioether N-14)	90 nM
CC(C)C[C@@H]1NC(=O)[C@H](Cc2c[nH]c3ccccc23)NC(=O)[C@H](CC(=O)O)NC(=O)[C@H](Cc2ccc(O)cc2)NC(=O)[C@H](Cc2ccccc2)NC(=O)CSC[C@@H](C(=O)N[C@@H](C)C(N)=O)NC(=O)[C@H](CO)NC(=O)[C@H](C(C)C)NC(=O)[C@H](CC2CC2)NC(=O)[C@H](CC(N)=O)NC(=O)CN(C)C(=O)[C@H](C)N(C)C(=O)[C@H](C(C)C)NC(=O)[C@H](Cc2ccc(-c3ccccc3)cc2)NC1=O [Example 1144] ({CH2CO}-FYDWL[Bip]V[NMeA][Sar]N[Ala(cPr)]VSCA-NH2; thioether N-14)	630 nM

Results, then the compound that gave them:

IC50	Compound
310 nM	CC(C)C[C@@H]1NC(=O)[C@H](CCCN)NC(=O)[C@H](Cc2ccccc2)N(C)C(=O)[C@H](C)N(C)C(=O)[C@H](CCCNC(=N)N)NC(=O)[C@H](Cc2ccc(-c3ccccc3)cc2)NC(=O)[C@H](C(C)C)NC(=O)[C@H](Cc2c[nH]c3ccccc23)NC(=O)[C@H](CC(=O)O)NC(=O)[C@H](Cc2ccc(O)cc2)NC(=O)[C@H](Cc2ccccc2)NC(=O)CSC[C@@H](C(=O)NCC(N)=O)NC(=O)[C@H](CO)NC(=O)[C@H](C(C)C)NC1=O [Example 1278] ({CH2CO}-FYDWV[Bip]R[NMeA][NMeF][Orn]LVSCG-NH2; thioether N-14)
840 nM	CC(C)C[C@@H]1NC(=O)[C@H](C)NC(=O)CN(C)C(=O)[C@H](C)N(C)C(=O)[C@H](C(C)C)NC(=O)[C@H](Cc2ccc(-c3ccccc3)cc2)NC(=O)[C@H](CC(C)C)NC(=O)[C@H](Cc2c[nH]c3ccccc23)NC(=O)[C@H](CC(=O)O)NC(=O)[C@H](Cc2ccc(O)cc2)NC(=O)[C@H](Cc2ccccc2)NC(=O)CSC[C@@H](C(=O)N[C@@H](C)C(N)=O)NC(=O)[C@H](CO)NC(=O)[C@H](C(C)C)NC1=O [Example 1158] ({CH2CO}-FYDWL[Bip]V[NMeA][Sar]ALVSCA-NH2; thioether N-14)
250 nM	CC(C)C[C@@H]1NC(=O)[C@H](Cc2c[nH]c3ccccc23)NC(=O)[C@H](CC(=O)O)NC(=O)[C@H](Cc2ccc(O)cc2)NC(=O)[C@H](Cc2ccccc2)NC(=O)CSC[C@@H](C(=O)N[C@@H](C)C(N)=O)NC(=O)[C@H]([C@@H](C)O)NC(=O)[C@H](CCCCN)NC(=O)[C@H](CC(C)C)NC(=O)[C@H](CC(N)=O)NC(=O)[C@H]2CCCN2C(=O)[C@H](C)N(C)C(=O)[C@H](C(C)C)NC(=O)[C@H](Cc2ccc(-c3ccccc3)cc2)NC1=O [Example 1089] ({CH2CO}-FYDWL[Bip]V[NMeA][dP]NLKTCA-NH2; thioether N-14)
690 nM	CC(C)C[C@@H]1NC(=O)[C@H](Cc2c[nH]c3ccccc23)NC(=O)[C@H](CC(=O)O)NC(=O)[C@H](Cc2ccc(O)cc2)NC(=O)[C@H](Cc2cnc[nH]2)NC(=O)CSC[C@@H](C(=O)NCC(N)=O)NC(=O)[C@H](CO)NC(=O)[C@H](C(C)C)NC(=O)[C@H](CC(C)C)NC(=O)[C@H](CC(N)=O)NC(=O)CN(C)C(=O)[C@H](C)N(C)C(=O)[C@H](C(C)C)NC(=O)[C@H](Cc2ccc(-c3ccccc3)cc2)NC1=O [Example 1150] ({CH2CO}-HYDWL[Bip]V[NMeA][Sar]NLVSCG-NH2; thioether N-14)
30 nM	Cc1cccc(C[C@@H]2NC(=O)[C@H](CC(=O)O)NC(=O)[C@H](Cc3ccc(C(=O)O)cc3)NC(=O)[C@H](Cc3ccc(OCC(=O)O)cc3)NC(=O)CSC[C@@H](C(=O)N[C@@H](C)C(N)=O)NC(=O)[C@H]([C@@H](C)O)NC(=O)[C@H](C(C)C)NC(=O)[C@H](CC3CCCCC3)NC(=O)[C@H](CCN)NC(=O)[C@H](Cc3ccccc3)N(C)C(=O)[C@H](CCCN)NC(=O)[C@H](CCC(=O)O)NC(=O)[C@H](Cc3ccc(-c4ccccc4)cc3)NC(=O)C(C(C)C)NC2=O)c1 (stereo partly shown) [Example 1449] ({CH2CO}-Y(Carboxymethyl)[Phe(4-COOH)]D[Phe(3-Me)][ξV][Bip]E[Orn][NMeF][Dab][Cha]VTCA-NH2; thioether N-14)
210 nM	CC(C)C[C@@H]1NC(=O)CSC[C@@H](C(=O)NCC(N)=O)NC(=O)[C@H](CO)NC(=O)[C@H](C(C)C)NC(=O)[C@H](CC(C)C)NC(=O)[C@H](CCCNC(=N)N)NC(=O)[C@H](Cc2ccccc2)N(C)C(=O)[C@H](C)N(C)C(=O)[C@H](CCCNC(=N)N)NC(=O)[C@H](Cc2ccc(-c3ccccc3)cc2)NC(=O)[C@H](C(C)C)NC(=O)[C@H](Cc2c[nH]c3ccccc23)NC(=O)[C@H](CC(=O)O)NC(=O)[C@H](Cc2ccc(C(=O)O)cc2)NC1=O [Example 1295] ({CH2CO}-L[Phe(4-COOH)]DWV[Bip]R[NMeA][NMeF]RLVSCG-NH2; thioether N-14)
560 nM	CC(C)C[C@@H]1NC(=O)[C@H](Cc2c[nH]c3ccccc23)NC(=O)[C@H](CC(=O)O)NC(=O)[C@H](Cc2ccc(O)cc2)NC(=O)[C@H](Cc2ccc(OCC(=O)O)cc2)NC(=O)CSC[C@@H](C(=O)NCC(N)=O)NC(=O)[C@H](CO)NC(=O)[C@H](C(C)C)NC(=O)[C@H](CC(C)C)NC(=O)[C@H](CC(N)=O)NC(=O)CN(C)C(=O)[C@H](C)N(C)C(=O)[C@H](C(C)C)NC(=O)[C@H](Cc2ccc(-c3ccccc3)cc2)NC1=O [Example 1137] ({CH2CO}-Y(Carboxymethyl)YDWL[Bip]V[NMeA][Sar]NLVSCG-NH2; thioether N-14)
